According to patent US20180186815A1, “PHARMACEUTICAL COMPOSITIONS, METHODS FOR THEIR PREPARATION AND THEIR USE IN THE TREATMENT OF CANCER” (Urifer Ltd., priority 2016, published 2018):
Like-named read-outs stand apart in the source and are kept apart here.

Legend:
Type in all cases: cell-based
[1] = Viability of FS non malignant fibroblastic cells, XTT test; details: FS cells (non-malignant fibroblastic cell line), Control DMSO = 100%, read-out: percentage of viable cells, FS
Description: (§1) The effect of the compounds Z522-XXX on the growth profile of cancer cells which express Fer was tested. The cells that were tested were: the colon cancer cell lines HT29 and HCT 116, RKO. The effect of each of the compounds on FS cells, a non malingnant fibroblastic cell line, was also studied.
(§2) Generally, cells were seeded in 96 wells microplates and were left to grow untreated overnight. Each of the compounds was dissolved in DMSO and was then added to each well in a final concentration of 5 μM. The concentration of DMSO in each well was 0.4% v/v. Untreated cells and cells subjected to 0.4% DMSO alone, served as controls. The percentage of viable cells in each well was determined 96 hours after compounds addition, using the XTT test (Berridge, M. V. et al, 2005).

[2] = tested on: colon cancer cell line RKO; experiment: Growth profile / viability of RKO colon cancer cells, XTT test; details: 96 h, Control DMSO = 100%, read-out: percentage of viable cells, RKO
Description: as §1, §2

[3] = tested on: colon cancer cell line HCT 116; experiment: Growth profile / viability of HCT116 colon cancer cells, XTT test; details: Homo sapiens, HCT-116, 96 h, Control DMSO = 100%, read-out: percentage of viable cells, HCT116
Description: as §1, §2

[4] = tested on: colon cancer cell line HT29; experiment: Growth profile / viability of HT29 colon cancer cells, XTT test; details: Homo sapiens, HT-29, 96 h, Control DMSO = 100%, read-out: percentage of viable cells, HT29
Description: as §1, §2

CN1CCN(C(=O)C2CCN(c3nn4cc(-c5ccc(N6CCN(C)CC6)cc5)nc4s3)CC2)CC1 [Compound Z522-0160, 2-{4-[(4-methylpiperazin-1-yl)carbonyl]-piperidin-1-yl}-6-[4-(4-methyl-piperazin-1-yl)-phenyl]imidazo[2,1-b][1,3,4]-thiadiazole]
viability at 96 h, 5 µM ([1]; first FS column): 101% | viability at 96 h, 5 µM ([1]; second FS column): 104% | viability at 5 µM ([2]; first RKO column): 92% | viability at 5 µM ([2]; second RKO column): 109% | viability at 5 µM ([3]; first HCT116 column): 105% | viability at 5 µM ([3]; second HCT116 column): 108% | viability at 5 µM ([4]; first HT29 column): 117% | viability at 5 µM ([4]; second HT29 column): 91%

CN1CCN(C(=O)C2CCN(c3nn4cc(-c5ccc(N6CCSCC6)cc5)nc4s3)CC2)CC1 [Compound Z522-0164, 2-{4-[(4-methylpiperazin-1-yl)carbonyl]-piperidin-1-yl}-6-(4-thiomorpholin-4-ylphenyl)-imidazo[2,1-b]-[1,3,4]thiadiazole]
viability at 96 h, 5 µM ([1]; first FS column): 104% | viability at 96 h, 5 µM ([1]; second FS column): 95% | viability at 5 µM ([2]; first RKO column): 60% | viability at 5 µM ([2]; second RKO column): 63% | viability at 5 µM ([3]; first HCT116 column): 80% | viability at 5 µM ([3]; second HCT116 column): 97% | viability at 5 µM ([4]; first HT29 column): 50% | viability at 5 µM ([4]; second HT29 column): 42%

CC1CCCN(c2ccc(-c3cn4nc(N5CCC(C(=O)N6CCN(C)CC6)CC5)sc4n3)cc2)C1 (centres unmarked) [Compound Z522-0166, 2-{4-[(4-methylpiperazin-1-yl)carbonyl]-piperidin-1-yl}-6-[4-(3-methyl-piperidin-1-yl)-phenyl]imidazo[2,1-b][1,3,4]-thiadiazole]
viability at 96 h, 5 µM ([1]; first FS column): 101% | viability at 96 h, 5 µM ([1]; second FS column): 92% | viability at 5 µM ([2]; first RKO column): 6% | viability at 5 µM ([2]; second RKO column): 6% | viability at 5 µM ([3]; first HCT116 column): 30% | viability at 5 µM ([3]; second HCT116 column): 23% | viability at 5 µM ([4]; first HT29 column): 4% | viability at 5 µM ([4]; second HT29 column): 4%

CN1CCN(C(=O)C2CCN(c3nn4cc(-c5ccc(-n6cccn6)cc5)nc4s3)CC2)CC1 [Compound Z522-0167, 2-{4-[(4-methyl-piperazin-1-yl)-carbonyl]piperidin-1-yl}-6-[4-(1H-pyrazol-1-yl)-phenyl]imidazo[2,1-b][1,3,4]-thiadiazole]
viability at 96 h, 5 µM ([1]; first FS column): 96% | viability at 96 h, 5 µM ([1]; second FS column): 92% | viability at 5 µM ([2]; first RKO column): 36% | viability at 5 µM ([2]; second RKO column): 47% | viability at 5 µM ([3]; first HCT116 column): 94% | viability at 5 µM ([3]; second HCT116 column): 83% | viability at 5 µM ([4]; first HT29 column): 87% | viability at 5 µM ([4]; second HT29 column): 86%

CC1CCN(c2ccc(-c3cn4nc(N5CCC(C(=O)N6CCN(C)CC6)CC5)sc4n3)cc2)CC1 [Compound Z522-0170, 2-{4-[(4-methyl-piperazin-1-yl)carbonyl]piperidin-1-yl}-6-[4-(4-methylpiperidin-1-yl)phenyl]-imidazo[2,1-b]-[1,3,4]thiadiazole]
viability at 96 h, 5 µM ([1]; first FS column): 90% | viability at 96 h, 5 µM ([1]; second FS column): 68% | viability at 5 µM ([2]; first RKO column): 3% | viability at 5 µM ([2]; second RKO column): 4% | viability at 5 µM ([3]; first HCT116 column): 2% | viability at 5 µM ([3]; second HCT116 column): 3% | viability at 5 µM ([4]; first HT29 column): 5% | viability at 5 µM ([4]; second HT29 column): 2%

CC(C)N1CCN(c2ccc(-c3cn4nc(N5CCC(C(=O)N6CCN(C)CC6)CC5)sc4n3)cc2)CC1 [Compound Z522-0174, 6-[4-(4-isopropyl-piperazin-1-yl)-phenyl]-2-{4-[(4-methylpiperazin-1-yl)carbonyl]-piperidin-1-yl}-imidazo[2,1-b]-[1,3,4]thiadiazole]
viability at 96 h, 5 µM ([1]; first FS column): 117% | viability at 96 h, 5 µM ([1]; second FS column): 113% | viability at 5 µM ([2]; first RKO column): 93% | viability at 5 µM ([2]; second RKO column): 97% | viability at 5 µM ([3]; first HCT116 column): 105% | viability at 5 µM ([3]; second HCT116 column): 124% | viability at 5 µM ([4]; first HT29 column): 77% | viability at 5 µM ([4]; second HT29 column): 78%

CN1CCN(C(=O)C2CCN(c3nn4cc(-c5ccc(N6CCOCC6)cc5)nc4s3)CC2)CC1 [Compound Z522-0176, 2-{4-[(4-methyl-piperazin-1-yl)-carbonyl]piperidin-1-yl}-6-(4-morpholin-4-yl-phenyl)imidazo[2,1-b][1,3,4]-thiadiazole]
viability at 96 h, 5 µM ([1]; first FS column): 103% | viability at 96 h, 5 µM ([1]; second FS column): 100% | viability at 5 µM ([2]; first RKO column): 92% | viability at 5 µM ([2]; second RKO column): 89% | viability at 5 µM ([3]; first HCT116 column): 109% | viability at 5 µM ([3]; second HCT116 column): 116% | viability at 5 µM ([4]; first HT29 column): 112% | viability at 5 µM ([4]; second HT29 column): 112%
